Test results published in patent US11299497B2, “Substituted tetrahydropyran dihydrothienopyrimidines and their use as phosphodiesterase inhibitors” (UNION therapeutics A/S, priority 2017, dated 2022).

Legend:
[1] = molecular target: human PDE41 Dcatalytic domain (UniProt no. Q08499 [S380-L740]) (Homo sapiens (Human), UniProt Q08499); test: PDE4 Assay (TR-FRET, FAM-cAMP cleavage); format: biochemical; conditions: human PDE4D catalytic domain, cAMP / FAM-cAMP substrate, read-out: PDE4 IC50 range
Experimental: The human PDE41 Dcatalytic domain (UniProt no. Q08499 [S380-L740]) was incubated with a mixture of non-labelled cAMP (cyclic adenosine monophosphate) and fluorescein amidite (FAM) conjugated cAMP and titrated test or reference compound. Following brief incubation the enzymatic reaction was stopped by addition of binding buffer containing nanoparticles with immobilized trivalent metal ions capable of binding 1) AMP phospho groups and 2) terbium (Tb) donor fluorophores. Subsequent excitation of the Tb donor triggers time-resolved FRET to adjacent FAM acceptor molecules resulting in light emission. In the presence of a PDE4 inhibitor, AMP generation was reduced resulting in a lower fluorescence signal. The cAMP phosphodiester is not bound by the detection system.
The results were calculated as the molar concentrations resulting in 50/inhibition of the substrate cleavage compared to controls samples, and are expressed as IC50 (nM).

[2] = system: TNF-α release, human peripheral blood mononuclear cells (PBMC); test: TNF-α Release in LPS-stimulated PBMC; format: cell-based; conditions: 30 minutes pre-incubation, lipopolysaccharide stimulation 18 hours, TR-FRET, read-out: TNF-α IC50 range
Experimental: Human peripheral blood mononuclear cells (PBMC) were isolated from buffy coats. The blood is mixed with saline at a ratio of 1:1, and the PBMC were isolated using Lymphoprep Tube™ (Nycomed, Norway). The PBMC were suspended in RPMI1640 with 0.5% human serum albumin, pen/strep and 2 mM L-glutamine at a concentration of 5×105 c/ml. The cells were pre-incubated for 30 minutes with the test compounds in 96 well tissue culture plates and stimulated for 18 hours with lipopolysaccharide 1 mg/ml (Sigma). TNF-α concentration in the supernatants was measured using homogeneous time-resolved fluorescence resonance (TR-FRET). The assay is quantified by measuring fluorescence at 665 nm (proportional to TNF-α concentration) and 620 nm (control).
Results were expressed as IC50 values calculated from inhibition curves using as positive controls the secretion in LPS stimulated wells and as negative controls the secretion in unstimulated cells.

Chain of human PDE41 Dcatalytic domain (Q08499 380-740): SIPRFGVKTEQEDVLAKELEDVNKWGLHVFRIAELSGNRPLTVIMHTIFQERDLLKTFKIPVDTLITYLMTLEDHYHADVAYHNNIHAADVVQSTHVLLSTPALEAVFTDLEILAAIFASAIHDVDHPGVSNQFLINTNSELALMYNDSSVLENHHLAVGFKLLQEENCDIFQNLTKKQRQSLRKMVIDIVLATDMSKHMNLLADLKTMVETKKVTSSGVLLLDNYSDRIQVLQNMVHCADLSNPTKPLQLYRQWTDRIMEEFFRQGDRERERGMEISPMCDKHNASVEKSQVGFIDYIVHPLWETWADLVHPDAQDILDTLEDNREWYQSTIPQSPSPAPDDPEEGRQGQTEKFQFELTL

SMILES | IC50 [1] [nM] | IC50 [2] [nM]
CN(CCC1CCOCC1)c1nc2c(c(NC(C)(C)C)n1)[S+]([O-])CC2 (stereo not drawn) [Example 3, N4-tert-butyl-N2-methyl-5-oxido-N2-(2-tetrahydropyran-4-ylethyl)-6,7-dihydrothieno[3,2-d]pyrimidin-5-ium-2,4-diamine] | 10 to 50 | 10 to 50
CN(CCC1CCOCC1)c1nc2c(c(NC3(C)CC3)n1)[S+]([O-])CC2 (stereo not drawn) [Example 14, N2-methyl-N4-(1-methylcyclopropyl)-5-oxido-N2-(2-tetrahydropyran-4-ylethyl)-6,7-dihydrothieno[3,2-d]pyrimidin-5-ium-2,4-diamine] | 10 to 50 | < 10
CC(C)Nc1nc(N(C)CCC2CCOCC2)nc2c1[S+]([O-])CC2 (stereo not drawn) [Example 5, N4-isopropyl-N2-methyl-5-oxido-N2-(2-tetrahydropyran-4-ylethyl)-6,7-dihydrothieno[3,2-d]pyrimidin-5-ium-2,4-diamine] | 10 to 50 | 10 to 50
CN(CCC1CCOCC1)c1nc2c(c(NC(C)(C)CO)n1)[S+]([O-])CC2 (stereo not drawn) [Example 18, 2-methyl-2-[[2-[methyl(2-tetrahydropyran-4-ylethyl)amino]-5-oxido-6,7-dihydrothieno[3,2-d]pyrimidin-5-ium-4-yl]amino]propan-1-ol] | > 100 | > 100
CN(CCC1CCOCC1)c1nc2c(c(NC3(CO)CCC3)n1)[S+]([O-])CC2 (stereo not drawn) [Example 23, [1-[[2-[methyl(2-tetrahydropyran-4-ylethyl)amino]-5-oxido-6,7-dihydrothieno[3,2-d]pyrimidin-5-ium-4-yl]amino]cyclobutyl]methanol] | > 100 | > 100
CN(CCC1CCOCC1)c1nc2c(c(NC3(CO)CCCC3)n1)[S+]([O-])CC2 (stereo not drawn) [Example 22, [1-[[2-[methyl(2-tetrahydropyran-4-ylethyl)amino]-5-oxido-6,7-dihydrothieno[3,2-d]pyrimidin-5-ium-4-yl]amino]cyclopentyl]methanol] | > 100 | > 100
CN(CCC1CCOCC1)c1nc2c(c(NC3(CO)CC3)n1)[S+]([O-])CC2 (stereo not drawn) [Example 24, [1-[[2-[methyl(2-tetrahydropyran-4-ylethyl)amino]-5-oxido-6,7-dihydrothieno[3,2-d]pyrimidin-5-ium-4-yl]amino]cyclopropyl]methanol] | > 100 | > 100
CN(CCC1CCOCC1)c1nc2c(c(NC3COC3)n1)[S+]([O-])CC2 (stereo not drawn) [Example 21, N2-methyl-N4-(oxetan-3-yl)-5-oxido-N2-(2-tetrahydropyran-4-ylethyl)-6,7-dihydrothieno[3,2-d]pyrimidin-5-ium-2,4-diamine] | > 100 | 50 to 100
CC[C@H](C)Nc1nc(N(C)CCC2CCOCC2)nc2c1[S+]([O-])CC2 (stereo partly drawn) [Example 12, N2-methyl-N4-[(1S)-1-methylpropyl]-5-oxido-N2-(2-tetrahydropyran-4-ylethyl)-6,7-dihydrothieno[3,2-d]pyrimidin-5-ium-2,4-diamine] | 10 to 50 | 10 to 50
CCN(CCC1CCOCC1)c1nc2c(c(NC3CCOCC3)n1)[S@@+]([O-])CC2 [Example 2, (5R)—N2-ethyl-5-oxido-N4-tetrahydropyran-4-yl-N2-(2-tetrahydropyran-4-ylethyl)-6,7-dihydrothieno[3,2-d]pyrimidin-5-ium-2,4-diamine] | < 10 | < 10
CN(CCC1CCOCC1)c1nc2c(c(NC3(C)CCC3)n1)[S+]([O-])CC2 (stereo not drawn) [Example 8, N2-methyl-N4-(1-methylcyclobutyl)-5-oxido-N2-(2-tetrahydropyran-4-ylethyl)-6,7-dihydrothieno[3,2-d]pyrimidin-5-ium-2,4-diamine] | 10 to 50 | < 10
CN(CCC1CCOCC1)c1nc2c(c(NC3CCC3)n1)[S+]([O-])CC2 (stereo not drawn) [Example 9, N4-cyclobutyl-N2-methyl-5-oxido-N2-(2-tetrahydropyran-4-ylethyl)-6,7-dihydrothieno[3,2-d]pyrimidin-5-ium-2,4-diamine] | 10 to 50 | 10 to 50
COc1cccc(Nc2nc(N(C)CCC3CCOCC3)nc3c2[S+]([O-])CC3)c1 (stereo not drawn) [Example 16, N4-(3-methoxyphenyl)-N2-methyl-5-oxido-N2-(2-tetrahydropyran-4-ylethyl)-6,7-dihydrothieno[3,2-d]pyrimidin-5-ium-2,4-diamine] | < 10 | < 10
CC[C@@H](C)Nc1nc(N(C)CCC2CCOCC2)nc2c1[S+]([O-])CC2 (stereo partly drawn) [Example 13, N2-methyl-N4-[(1R)-1-methylpropyl]-5-oxido-N2-(2-tetrahydropyran-4-ylethyl)-6,7-dihydrothieno[3,2-d]pyrimidin-5-ium-2,4-diamine] | 10 to 50 | < 10
CN(CCC1CCOCC1)c1nc2c(c(NC3CC4(COC4)C3)n1)[S+]([O-])CC2 (stereo not drawn) [Example 15, N2-methyl-N4-(6-oxaspiro[3.3]heptan-2-yl)-5-oxido-N2-(2-tetrahydropyran-4-ylethyl)-6,7-dihydrothieno[3,2-d]pyrimidin-5-ium-2,4-diamine] | 10 to 50 | < 10
CCCNc1nc(N(C)CCC2CCOCC2)nc2c1[S+]([O-])CC2 (stereo not drawn) [Example 4, N2-methyl-5-oxido-N4-propyl-N2-(2-tetrahydropyran-4-ylethyl)-6,7-dihydrothieno[3,2-d]pyrimidin-5-ium-2,4-diamine] | 50 to 100 | 10 to 50
CCNc1nc(N(C)CCC2CCOCC2)nc2c1[S+]([O-])CC2 (stereo not drawn) [Example 19, N4-ethyl-N2-methyl-5-oxido-N2-(2-tetrahydropyran-4-ylethyl)-6,7-dihydrothieno[3,2-d]pyrimidin-5-ium-2,4-diamine] | > 100 | 50 to 100
CN(CCC1CCOCC1)c1nc2c(c(NC3(C#N)CCC3)n1)[S+]([O-])CC2 (stereo not drawn) [Example 10, 1-[[2-[methyl(2-tetrahydropyran-4-ylethyl)amino]-5-oxido-6,7-dihydrothieno[3,2-d]pyrimidin-5-ium-4-yl]amino]cyclobutanecarbonitrile] | 10 to 50 | 10 to 50
CN(CCC1CCOCC1)c1nc2c(c(NC3CCCC3)n1)[S+]([O-])CC2 (stereo not drawn) [Example 20, N4-cyclopentyl-N2-methyl-5-oxido-N2-(2-tetrahydropyran-4-ylethyl)-6,7-dihydrothieno[3,2-d]pyrimidin-5-ium-2,4-diamine] | < 10 | < 10
CN(CCC1CCOCC1)c1nc2c(c(NC3CCOCC3)n1)[S+]([O-])CC2 (stereo in doubt) [Example 1, (5R)—N2-methyl-5-oxido-N4-tetrahydropyran-4-yl-N2-(2-tetrahydropyran-4-ylethyl)-6,7-dihydrothieno[3,2-d]pyrimidin-5-ium-2,4-diamine] | 10 to 50 | 10 to 50
CC(C)CNc1nc(N(C)CCC2CCOCC2)nc2c1[S+]([O-])CC2 (stereo not drawn) [Example 7, N4-isobutyl-N2-methyl-5-oxido-N2-(2-tetrahydropyran-4-ylethyl)-6,7-dihydrothieno[3,2-d]pyrimidin-5-ium-2,4-diamine] | 10 to 50 | 10 to 50
CN(CCC1CCOCC1)c1nc2c(c(NC3CCCCC3)n1)[S+]([O-])CC2 (stereo not drawn) [Example 17, N4-cyclohexyl-N2-methyl-5-oxido-N2-(2-tetrahydropyran-4-ylethyl)-6,7-dihydrothieno[3,2-d]pyrimidin-5-ium-2,4-diamine] | < 10 | < 10
CN(CCC1CCOCC1)c1nc2c(c(NC3(C#N)CC3)n1)[S+]([O-])CC2 (stereo not drawn) [Example 11, 1-[[2-[methyl(2-tetrahydropyran-4-ylethyl)amino]-5-oxido-6,7-dihydrothieno[3,2-d]pyrimidin-5-ium-4-yl]amino]cyclopropanecarbonitrile] | 10 to 50 | 10 to 50
CCCCNc1nc(N(C)CCC2CCOCC2)nc2c1[S+]([O-])CC2 (stereo not drawn) [Example 6, N4-butyl-N2-methyl-5-oxido-N2-(2-tetrahydropyran-4-ylethyl)-6,7-dihydrothieno[3,2-d]pyrimidin-5-ium-2,4-diamine] | 10 to 50 | 10 to 50
